From patent US12377173B2, “Compositions comprising hyperpolarized probes for H2O2 sensing and methods of using same” (Duke University, priority 2021, dated 2025)

Key:
[1] = Stability in PBS and DMEM media (LCMS)
[2] = In vivo reaction-based detection of H2O2 with hyperpolarized 15N-BBCP; settings: rat
Method: Finally, the ability of ^15N-BBCP to image H2O2 in vivo using clinical 3 T MRI was assessed.
Finally, the feasibility of ^15N-BBCP to detect H2O2 in vivo was investigated in a rat model at the clinical 3 T MRI. […] Despite the small chemical shift difference, the accumulation of ^15N-HBCP production was clearly observed in the later time points.

[3] = ROS/RNS selectivity test, LC/MS; settings: 200 μM BBCP, 2 mM ONOO^−, PBS pH 7.4, LC/MS
Method: (§1) Selectivity for the BBCP probe was measured by analytical high performance liquid chromatography (HPLC) using Agilent 1200 Series HPLC System equipped with a multi-wavelength detector and an Agilent Zorbax SB-C18 Column (3.5 μm particle size, 3.0×150 mm). Concentrations of 4-cyanopyridine was calculated using integrated peak intensities at 280 nm using a calibration curve. All reactions were tested with 200 μM BBCP and 2 mM ROS/RNS (10 equiv) in PBS (pH 7.4). At a given time point, the reaction was quenched with 10 μL 1 M ascorbic acid (10 mM) and analyzed by LCMS. The ROS and RNS were generated as follows:
ONOO^−: To a solution of aqueous NaOH (0.5 M, 2.5 mL) and iPrOH (2.5 mL) was added H2O2 (30% in H2O, 0.12 mL, 1.2 mmol, 1.2 equiv), followed by isoamyl nitrite (0.135 mL, 1.0 mmol, […]). The reaction was stirred at room temperature for 20 mins and washed with CH2Cl2 (10 mL×2). […] The solution was then filtered and stored in −20° C. until use. The concentration of the stock solution was calculated to be 14.3 mM using absorbance at 302 nm (e=1670 M^−1).

[4] = ROS selectivity test, LC/MS conversion to 4-cyanopyridine; settings: 200 μM BBCP, 2 mM H2O2 (10 equiv), PBS pH 7.4, 5-30 min, room temperature
Method: as §1
H2O2: A 30% H2O2 in H2O solution was diluted to a 500 mM stock solution. 4 μL of 500 mM H2O2 (2 mM) was added to a 200 μM of BBCP in PBS.

[5] = ROS/RNS/reactive sulfur selectivity test, LC/MS; settings: 200 μM probe, 2 mM reactive species, PBS pH 7.4, LC/MS (FIG. 1B)
Method: Selectivity for the BBCP probe was measured by analytical high performance liquid chromatography (HPLC) using Agilent 1200 Series HPLC System equipped with a multi-wavelength detector and an Agilent Zorbax SB-C18 Column (3.5 μm particle size, 3.0×150 mm). Concentrations of 4-cyanopyridine was calculated using integrated peak intensities at 280 nm using a calibration curve. All reactions were tested with 200 μM BBCP and 2 mM ROS/RNS (10 equiv) in PBS (pH 7.4). At a given time point, the reaction was quenched with 10 μL 1 M ascorbic acid (10 mM) and analyzed by LCMS.

HeLa cells = assay: Cytotoxicity analysis using WST-8 assay (CCK-8); type: cell-based; settings: concentrations up to 10 mM, 6 h of treatment
Method: WST cytotoxicity assay was performed using Cell Counting Kit-8 (CCK-8) according to the procedure as follows. HeLa cells were seeded in a 96-well plate at a concentration of 5000 cells/well in DMEM medium (high glucose) supplemented with 10% FBS and 1% sodium pyruvate. The cell cultures were incubated for 24 h in a humidified atmosphere of 5% CO2 at 37° C. After the incubation period, 10 μL of 5, 10, 50, 100 mM stock solutions of BBCP dissolved in PBS buffer (pH 7.4) were added to each well so the final concentration is 0.5, 1, 5, 10 mM, respectively. PBS and sodium dodecyl sulfate (SDS) (1 mM) were used as negative and positive controls, respectively. The treated 96-well plates were incubated for 6 and 24 h in a humidified atmosphere of 5% CO2 at 37° C. After appropriate incubation time, the CCK-8 solution (10 μL) was added to each well and further incubated for 2 h for color development. The absorbance at 450 nm from each well was measured by using a microplate reader (Synergy™ H1, BioTek). The background absorbance of BBCP corrected.

[6] = UV/Vis kinetics measurement; settings: 25° C., PBS pH 7.4, 50 μM BBCP, 5 mM H2O2 (100 equiv)
Method: The pseudo-first order rate constant was calculated by monitoring the BBCP consumption with UV/Vis spectroscopy over time in the presence of excess H2O2. A solution of BBCP (50 μM) oxidation was initiated by the addition of freshly prepared H2O2 (5 mM, 100 equiv) in PBS (pH 7.4) at 25° C. Reactions were monitored as Abs310 change and scanned every 30 s for 20 minutes. The apparent k1 value was determined by the initial rate of reaction (0-50 s) as (3.4±0.15)×10^−3 min^−1. The experiment was repeated in triplicate to give a k2 value of 12.6±0.52 M^−1 min^−1 (0.21±0.0087 M^−1 s^−1).

[7] = ROS selectivity test, LC/MS; settings: 200 μM BBCP, 2 mM OCl^−, PBS pH 7.4, LC/MS
Method: as §1
OCl^−: Commercial bleach (8.25% NaOCl) was diluted to 500 mM. 4 μL of 500 mM NaOCl (for a final concentration of 2 mM) was added to 200 μM of BBCP.

[8] = injection of exogenous H2O2, 3 T 15N-MRS (Example 3)

1-(4-boronobenzyl)-4-(cyano)pyridin-1-ium [^15N-BBCP]
LCMS absorbance peak area of the probe in PBS ([1]; 0 hours): 566.6
time stable in PBS and DMEM media ([1]; 200 μM probe, pH 7.4, room temp, LCMS): over 26 h
LCMS absorbance peak area of the probe in PBS ([1]; 2 hours): 565.6
LCMS absorbance peak area of the probe in PBS ([1]; 26 hours): 564.9
stability in physiological buffer solution (in words) ([1]; PBS, pH 7.4, 200 μM, 0, 2 and 24 h (FIG. 4)): only showing hydrolysis of boronic ester to boronic acid
15N-CP (fragmentation product) signal in vivo [2, 8]: ^15N-CP was not observed
15N-HBCP (oxidation product) signal in vivo [2, 8]: ^15N-HBCP peak was detectable
15N-CP (fragmentation product) signal in vivo ([2]; intravenous bolus 40-mM after intraperitoneal H2O2, 3 T): ^15N-CP was not observed
15N-HBCP (oxidation product) signal in vivo ([2]; intravenous bolus 40-mM after intraperitoneal H2O2, slab with liver and kidneys, 3 T): both ^15N-BBCP and ^15N-HBCP peaks appeared
reactivity with peroxynitrite [3]: moderate reactivity
conversion to 4-cyanopyridine on reaction with H2O2 [4]: significant conversion to 4-cyanopyridine
reactivity toward hydrogensulfite [5]: showed reactivity
cell viability (HeLa cells): > 90%
apparent k1 (pseudo-first order rate constant), initial rate 0-50 s [6]: (3.4±0.15)×10^−3 min^−1
reactivity with hypochlorite [7]: moderate reactivity
